Values after ≈ are worked out from the molar mass of the structure shown.
Test system: 3T3 fibroblasts
Assay: Cell viability by MTT assay in fibroblasts
Type: cell-based
Details: 24 h; for IC50: Fibroblast, read-out: 50% Inhibitory Concentration (IC50)
Text: All cell lines (RAW 264.7 murine macrophages, DC2.4 dendritic cells, and 3T3 fibroblasts; ATCC, Manassas, VA) were maintained according to ATCC guidelines. B3Z T cells were obtained from Dr. Nilabh Shastri (Johns Hopkins) and maintained and used as previously outlined. See, Broaders, K. E.; Cohen, J. A.; Beaudette, T. T.; Bachelder, E. M.; Frechet, J. M., Acetalated dextran is a chemically and biologically tunable material for particulate immunotherapy. Proc Natl Acad Sci USA 2009, 106 (14), 5497-502. Cell viability was determined with an MTT assay, as previously described. See, Chen, N.; Collier, M. A.; Gallovic, M. D.; Collins, G. C.; Sanchez, C. C.; Fernandes, E. Q.; Bachelder, E. M.; Ainslie, K. M., Degradation of acetalated dextran can be broadly tuned based on cyclic acetal coverage and molecular weight. Int J Pharm 2016, 512 (1), 147-157.

SMILES | IC50 [µg/mL] | 50% Inhibitory Concentration (IC50) [µg/mL]
Cc1ncc[nH]1 [2-methylimidazole] | ~1000 (≈ 12.2 mM) | –
NCCC(=O)N[C@@H](Cc1cnc[nH]1)C(=O)O [L-carnosine] | > 1000 | –
CC(=O)[O-].CC(=O)[O-].[Zn+2] [zinc acetate dihydrate] | – | 16.0 ± 1.0
O.O.O.O.O.O.O=[N+]([O-])[O-].O=[N+]([O-])[O-].[Zn+2] [zinc nitrate hexahydrate] | – | 25.8 ± 2.1

From US20250295762A1, “COMPOSITE BIOACTIVE COMPOSITIONS AND APPLICATIONS THEREOF” (THE UNIVERSITY OF NORTH CAROLINA AT CHAPEL HILL, priority 2022, published 2025)
